Tests used:
[1] = tested on: PBMC (polyclonal gluten-specific T cells) of paediatric and adult CD patients; conditions: corresponding adult data shown for comparison (14); cited from earlier work
[2] = tested on: PBMC (polyclonal gluten-specific T cells) of paediatric and adult CD patients; assay: IFN-γ ELISpot of PBMC after 3 day oral wheat challenge (SFU, % of maximal peptide response, dominance scores, EC50; Examples 5-6); assay type: cell-based, human; conditions: for Dominance score 3-5yrs (n = 9): CD children 3-5yrs, n = 9, following wheat challenge; for Dominance score 3-5yrs (n = 9) / Dominance score 6-10yrs (n = 10) / Dominance score 11-18yrs (n = 11): mean percentage of maximal peptide response; for Dominance score 6-10yrs (n = 10): CD children 6-10yrs, n = 10, following wheat challenge; for Dominance score 11-18yrs (n = 11): CD children 11-18yrs, n = 11, following wheat challenge; for Dominance score Mean all ages: CD children, following wheat challenge (Table 9); for Dominance scores 3-5 yrs: children with celiac disease 3-5 yrs after wheat challenge (Table 14); for Dominance scores 6-10 yrs: children with celiac disease 6-10 yrs after wheat challenge (Table 14); for Dominance scores 11-18 yrs: children with celiac disease 11-18 yrs after wheat challenge (Table 14); for Dominance scores Mean all ages: mean of all subjects (Table 14)

Substance | Dominance scores 18+ yrs [1] | Dominance score 3-5yrs (n = 9) [2] | Dominance score 6-10yrs (n = 10) [2] | Dominance score 11-18yrs (n = 11) [2] | Dominance score Mean all ages [2] | Dominance scores 3-5 yrs [2] | Dominance scores 6-10 yrs [2] | Dominance scores 11-18 yrs [2] | Dominance scores Mean all ages [2]
W26 (PFPLQPEQPFPQP) [Peptide W26] | 0 | 39.4 | 61.6 | 35.0 | 45.8 | 46 | 62 | 35 | 47
W32 (PFPEQPEQPFPQP) [Peptide W32] | 0 | 26.9 | 34.4 | 28.2 | 30.2 | 26 | 34 | 28 | 30
W07 (QPFPQPEQPFCQQ) [Peptide W07] | 8 | 38.2 | 20.5 | 16.2 | 22.7 | 40 | 20 | 16 | 24
W13 (LQPFPQPELPYLQP) [Peptide W13] | 4 | 29.3 | 32.0 | 30.1 | 30.7 | 34 | 32 | 30 | 32

Reference: US20170232083A1, “METHODS OF DIAGNOSIS AND TREATMENT OF CELIAC DISEASE IN CHILDREN” (priority 2014, published 2017)
